Assay results: patent US9708334B2, “Substituted 2,4,5,6-tetrahydropyrrolo[3,4-c]pyrazole and 4,5,6,7-tetrahydro-2H-pyrazolo[4,3-c]pyridine compounds as GlyT1 inhibitors” (DART NEUROSCIENCE (CAYMAN) LTD., priority 2014, dated 2017)

target: T1, GlyT1 (Homo sapiens, UniProt P48067); assay: Glycine Transporter 1 (GlyT1) uptake assay, scintillation proximity assay of [14C]-glycine uptake; assay type: cell-based; conditions: SPA, four parameter logistic fit, read-out: GlyT1 (pIC50) (converted)
T1 construct: expressed in transfected cells
T1 sequence (P48067 1-706): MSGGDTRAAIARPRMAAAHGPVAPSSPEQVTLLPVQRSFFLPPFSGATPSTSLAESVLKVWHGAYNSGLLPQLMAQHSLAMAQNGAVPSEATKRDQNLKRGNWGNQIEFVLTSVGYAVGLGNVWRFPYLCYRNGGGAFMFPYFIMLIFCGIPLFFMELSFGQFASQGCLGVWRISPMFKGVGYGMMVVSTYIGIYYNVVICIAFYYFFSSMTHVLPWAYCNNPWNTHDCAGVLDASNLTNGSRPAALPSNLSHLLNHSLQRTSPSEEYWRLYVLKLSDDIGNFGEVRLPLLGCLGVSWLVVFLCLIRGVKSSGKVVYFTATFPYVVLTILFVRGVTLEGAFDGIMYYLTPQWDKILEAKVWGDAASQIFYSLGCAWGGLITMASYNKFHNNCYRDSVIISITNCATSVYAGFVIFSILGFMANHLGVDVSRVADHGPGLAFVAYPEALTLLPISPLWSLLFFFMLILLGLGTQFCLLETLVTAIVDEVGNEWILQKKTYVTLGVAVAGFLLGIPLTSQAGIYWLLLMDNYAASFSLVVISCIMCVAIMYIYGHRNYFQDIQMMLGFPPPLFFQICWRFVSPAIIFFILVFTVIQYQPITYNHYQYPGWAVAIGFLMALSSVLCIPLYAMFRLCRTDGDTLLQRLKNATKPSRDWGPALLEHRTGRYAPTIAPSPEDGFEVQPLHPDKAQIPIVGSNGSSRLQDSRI
Outline: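 IC50 values derive from four-parameter logistic curves fitted to dose-response data. Uptake of [14C]-glycine measured in scintillation proximity format.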

Row | IC50 | Structure (SMILES)
1 | < 100 nM | CS(=O)(=O)c1ccc(N2CCC(F)(F)CC2)c(C(=O)N2Cc3cn(-c4ccc(F)cn4)nc3C2)c1 [Example 120, 2-{5-[2-(4 4-Difluoropiperidin-1-yl)-5-methanesulfonylbenzoyl]-2H 4H 5H 6H-pyrrolo[3,4-c]pyrazol-2-yl}-5-fluoropyridine]
2 | < 100 nM | C[C@H](Oc1ccc(S(C)(=O)=O)cc1C(=O)N1Cc2cn(-c3cc(F)ccc3F)nc2C1)C(F)(F)F [Example 121, 2-(2 5-Difluorophenyl)-5-(5-methanesulfonyl-2-{[(2S)-1 1 1-trifluoropropan-2-yl]oxy}benzoyl)-2H 4H 5H 6H-pyrrolo[3,4-c]pyrazole]
3 | < 100 nM | Cc1ccc(F)c(-n2cc3c(n2)CN(C(=O)c2cc(S(C)(=O)=O)ccc2O[C@@H](C)C(F)(F)F)C3)c1 [Example 122, 2-(2-Fluoro-5-methylphenyl)-5-(5-methanesulfonyl-2-{[(2S)-1 1 1-trifluoropropan-2-yl]oxy}benzoyl)-2H 4H 5H 6H-pyrrolo[3,4-c]pyrazole]
4 | < 100 nM | CS(=O)(=O)c1ccc(N2CCC(F)(F)CC2)c(C(=O)N2Cc3cn(-c4cc(F)ccc4F)nc3C2)c1 [Example 123, 1-{2-[2-(2 5-Difluorophenyl)-2H 4H 5H 6H-pyrrolo[3,4-c]pyrazole-5-carbonyl]-4-methanesulfonylphenyl}-4 4-difluoropiperidine]
5 | < 100 nM | Cc1ccc(F)c(-n2cc3c(n2)CN(C(=O)c2cc(S(C)(=O)=O)ccc2N2CCC(F)(F)CC2)C3)c1 [Example 124, 4 4-Difluoro-1-{2-[2-(2-fluoro-5-methylphenyl)-2H 4H 5H 6H-pyrrolo[3,4-c]pyrazole-5-carbonyl]-4-methanesulfonylphenyl}piperidine]
6 | < 100 nM | CCS(=O)(=O)c1ccc(O[C@@H](C)C(F)(F)F)c(C(=O)N2Cc3cn(-c4cc(F)ccc4F)nc3C2)c1 [Example 125, 2-(2 5-Difluorophenyl)-5-[5-(ethanesulfonyl)-2-{[(2S)-1 1 1-trifluoropropan-2-yl]oxy}benzoyl]-2H 4H 5H 6H-pyrrolo[3,4-c]pyrazole]
7 | < 100 nM | CCS(=O)(=O)c1ccc(O[C@@H](C)C(F)(F)F)c(C(=O)N2Cc3cn(-c4cc(C)ccc4F)nc3C2)c1 [Example 126, 5-[5-(Ethanesulfonyl)-2-{[(2S)-1 1 1-trifluoropropan-2-yl]oxy}benzoyl]-2-(2-fluoro-5-methylphenyl)-2H 4H 5H 6H-pyrrolo[3,4-c]pyrazole]
8 | < 100 nM | CCS(=O)(=O)c1ccc(N2CCC(F)(F)CC2)c(C(=O)N2Cc3cn(-c4cc(F)ccc4F)nc3C2)c1 [Example 127, 1-{2-[2-(2 5-Difluorophenyl)-2H 4H 5H 6H-pyrrolo[3,4-c]pyrazole-5-carbonyl]-4-(ethanesulfonyl)phenyl}-4 4-difluoropiperidine]
9 | < 100 nM | CCS(=O)(=O)c1ccc(N2CCC(F)(F)CC2)c(C(=O)N2Cc3cn(-c4cc(C)ccc4F)nc3C2)c1 [Example 128, 1-[4-(Ethanesulfonyl)-2-[2-(2-fluoro-5-methylphenyl)-2H 4H 5H 6H-pyrrolo[3,4-c]pyrazole-5-carbonyl]phenyl]-4 4-difluoropiperidine]
10 | < 100 nM | CC(C)Oc1ccc(S(C)(=O)=O)cc1C(=O)N1Cc2cn(-c3cc(F)ccc3F)nc2C1 [Example 129, 2-(2 5-Difluorophenyl)-5-[5-methanesulfonyl-2-(propan-2-yloxy)benzoyl]-2H 4H 5H 6H-pyrrolo[3,4-c]pyrazole]
11 | < 100 nM | Cc1ccc(F)c(-n2cc3c(n2)CN(C(=O)c2cc(S(C)(=O)=O)ccc2OC(C)C)C3)c1 [Example 130, 2-(2-Fluoro-5-methylphenyl)-5-[5-methanesulfonyl-2-(propan-2-yloxy)benzoyl]-2H 4H 5H 6H-pyrrolo[3,4-c]pyrazole]
12 | < 100 nM | CCc1cc(-n2cc3c(n2)CN(C(=O)c2cc(S(C)(=O)=O)ccc2N2CCC(F)(F)CC2)C3)ccn1 [Example 131, 4-{5-[2-(4 4-Difluoropiperidin-1-yl)-5-methanesulfonylbenzoyl]-2H 4H 5H 6H-pyrrolo[3,4-c]pyrazol-2-yl}-2-ethylpyridine]
13 | < 100 nM | CCc1cc(-n2cc3c(n2)CN(C(=O)c2cc(S(=O)(=O)CC)ccc2N2CCC(F)(F)CC2)C3)ccn1 [Example 132, 4-{5-[2-(4 4-Difluoropiperidin-1-yl)-5-(ethanesulfonyl)benzoyl]-2H 4H 5H 6H-pyrrolo[3,4-c]pyrazol-2-yl}-2-ethylpyridine]
14 | < 100 nM | CCc1cc(-n2cc3c(n2)CN(C(=O)c2cc(S(C)(=O)=O)ccc2O[C@@H](C)C(F)(F)F)C3)ccn1 [Example 133, 2-Ethyl-4-[5-(5-methanesulfonyl-2-{[(2S)-1 1 1-trifluoropropan-2-yl]oxy}benzoyl)-2H 4H 5H 6H-pyrrolo[3,4-c]pyrazol-2-yl]pyridine]
15 | < 100 nM | CCc1cc(-n2cc3c(n2)CN(C(=O)c2cc(S(=O)(=O)CC)ccc2O[C@@H](C)C(F)(F)F)C3)ccn1 [Example 134, 4-{5-[5-(Ethanesulfonyl)-2-{[(2S)-1 1 1-trifluoropropan-2-yl]oxy}benzoyl]-2H 4H 5H 6H-pyrrolo[3,4-c]pyrazol-2-yl}-2-ethylpyridine]
16 | < 100 nM | CCS(=O)(=O)c1ccc(N2CCC(F)(F)CC2)c(C(=O)N2Cc3cn(-c4ccc(F)cn4)nc3C2)c1 [Example 135, 2-{5-[2-(4 4-Difluoropiperidin-1-yl)-5-(ethanesulfonyl)benzoyl]-2H 4H 5H 6H-pyrrolo[3,4-c]pyrazol-2-yl}-5-fluoropyridine]
17 | < 100 nM | Cc1ccc(F)c(-n2cc3c(n2)CN(C(=O)c2cc(S(C)(=O)=O)ccc2OCC2CC2)C3)c1 [Example 136, 5-[2-(Cyclopropylmethoxy)-5-methanesulfonylbenzoyl]-2-(2-fluoro-5-methylphenyl)-2H 4H 5H 6H-pyrrolo[3,4-c]pyrazole]
18 | < 100 nM | CS(=O)(=O)c1ccc(OCC2CC2)c(C(=O)N2Cc3cn(-c4cc(F)ccc4F)nc3C2)c1 [Example 137, 5-[2-(Cyclopropylmethoxy)-5-methanesulfonylbenzoyl]-2-(2 5-difluorophenyl)-2H 4H 5H 6H-pyrrolo[3,4-c]pyrazole]
19 | < 100 nM | CS(=O)(=O)c1ccc(OCC2CC2)c(C(=O)N2Cc3cn(-c4cccc(C(F)(F)F)c4F)nc3C2)c1 [Example 138, 5-[2-(Cyclopropylmethoxy)-5-methanesulfonylbenzoyl]-2-[2-fluoro-3-(trifluoromethyl)phenyl]-2H 4H 5H 6H-pyrrolo[3,4-c]pyrazole]
20 | < 100 nM | Cc1cccc(-n2cc3c(n2)CN(C(=O)c2cc(S(C)(=O)=O)ccc2OCC2CC2)C3)c1F [Example 139, 5-[2-(Cyclopropylmethoxy)-5-methanesulfonylbenzoyl]-2-(2-fluoro-3-methylphenyl)-2H 4H 5H 6H-pyrrolo[3,4-c]pyrazole]
21 | < 100 nM | Cc1cccc(-n2cc3c(n2)CN(C(=O)c2cc(S(C)(=O)=O)ccc2OCC2CC2)C3)c1 [Example 140, 5-[2-(Cyclopropylmethoxy)-5-methanesulfonylbenzoyl]-2-(3-methylphenyl)-2H 4H 5H 6H-pyrrolo[3,4-c]pyrazole]
22 | < 100 nM | CS(=O)(=O)c1ccc(-c2cccc(F)c2)c(C(=O)N2Cc3cn(-c4cccnc4)nc3C2)c1 [Example 141, 3-{5-[2-(3-Fluorophenyl)-5-methanesulfonylbenzoyl]-2H 4H 5H 6H-pyrrolo[3,4-c]pyrazol-2-yl}pyridine]
23 | < 100 nM | CS(=O)(=O)c1ccc(-c2cccc(F)c2)c(C(=O)N2Cc3cn(-c4ccncc4)nc3C2)c1 [Example 142, 4-{5-[2-(3-Fluorophenyl)-5-methanesulfonylbenzoyl]-2H 4H 5H 6H-pyrrolo[3,4-c]pyrazol-2-yl}pyridine]
24 | < 100 nM | CCc1cc(-n2cc3c(n2)CN(C(=O)c2cc(S(C)(=O)=O)ccc2-c2cccc(F)c2)C3)ccn1 [Example 143, 2-Ethyl-4-{5-[2-(3-fluorophenyl)-5-methanesulfonylbenzoyl]-2H 4H 5H 6H-pyrrolo[3,4-c]pyrazol-2-yl}pyridine]
25 | > 10000 nM | C[C@H](Oc1ccc(S(=O)(=O)CC2CC2)cc1C(=O)N1Cc2cn(-c3ccccc3)nc2C1)C(F)(F)F [Example 144, 5-(5-Cyclopropylmethanesulfonyl-2-{[(2S)-1 1 1-trifluoropropan-2-yl]oxy}benzoyl)-2-phenyl-2H 4H 5H 6H-pyrrolo[3,4-c]pyrazole]
26 | 1000 to 10000 nM | Cc1cccc(-n2cc3c(n2)CN(C(=O)c2cc(S(=O)(=O)CC4CC4)ccc2O[C@@H](C)C(F)(F)F)C3)c1 [Example 145, 5-(5-Cyclopropylmethanesulfonyl-2-{[(2S)-1 1 1-trifluoropropan-2-yl]oxy}benzoyl)-2-(3-methylphenyl)-2H 4H 5H 6H-pyrrolo[3,4-c]pyrazole]
27 | < 100 nM | C[C@H](Oc1ccc(S(C)(=O)=O)cc1C(=O)N1Cc2cn(-c3cccc(Cl)c3F)nc2C1)C(F)(F)F [Example 146, 2-(3-Chloro-2-fluorophenyl)-5-(5-methanesulfonyl-2-{[(2S)-1 1 1-trifluoropropan-2-yl]oxy}benzoyl)-2H 4H 5H 6H-pyrrolo[3,4-c]pyrazole]
